This is an account of results in PubChem BioAssay (NCI).

Molecules are shown by their SMILES. Values joined by “and” are separate entries in the source; they are usually repeats but may differ in a detail not shown here. Equal values may be shown once.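 Each compound was tested at five concentrations against cells in 96-well plates for 48 hours. Here, GI50 denotes the concentration required for 50% inhibition of growth. At the TGI there is no net growth.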

Test systems include MDA-MB-231 breast; KM12 colon; HCT-15 colon; CAKI-1 renal; COLO 205 colon; HCC-2998 colon; A498 renal; M14 melanoma; SNB-75 CNS; SR leukemia.
Holding throughout (assay): NCI tumour cell line growth inhibition, 48 h

As to `O=C(O)Cn1ccc2ccccc21`, the GI50 in the assay on MDA-MB-231 breast, in the assay with KM12 colon, in the assay with HCT-15 colon, with CAKI-1 renal, with COLO 205 colon and with HCC-2998 colon was more than 100 µM in each case. Moreover, the GI50 in the assay with A498 renal, in the assay with M14 melanoma and in the assay with SNB-75 CNS was more than 100 µM in each case. Further, the TGI in the assay with MDA-MB-231 breast, in the assay on KM12 colon, in the assay on HCT-15 colon, with CAKI-1 renal, in the assay on COLO 205 colon and with HCC-2998 colon was more than 100 µM each time. In addition, the TGI in the assay on A498 renal, in the assay with M14 melanoma and in the assay with SNB-75 CNS was more than 100 µM in each case.
Take `CCCCN1C(=O)/C(=c2\sc3n(c2=O)C2C(NN=3)N(CC)C(=O)N2CC)c2ccccc21` (configuration not stated): the GI50 was 1.38 µM with MDA-MB-231 breast; 0.36 µM in the assay on SR leukemia; 1.38 µM in the assay on HCC-2998 colon; 0.169 µM in the assay with A498 renal; 0.479 µM in the assay with M14 melanoma; 0.258 µM in the assay with SNB-75 CNS. Further, the TGI amounted to 3.74 µM in the assay on MDA-MB-231 breast; 3.81 µM in the assay with HCC-2998 colon; 0.721 µM in the assay on A498 renal; 2.31 µM with M14 melanoma; 1.56 µM in the assay on SNB-75 CNS.
On to `CC(C)(C)c1nc(-c2cccc(NS(=O)(=O)c3c(F)cccc3F)c2F)c(-c2ccnc(N)n2)s1`, for which the GI50 in the assay on MDA-MB-231 breast was 7.19 µM; in the assay with KM12 colon, 23.8 µM; with HCT-15 colon, 22.2 µM; in the assay on COLO 205 colon it was less than 0.01 µM; with HCC-2998 colon it was 24.1 µM. Also, the TGI was more than 69.9 µM with MDA-MB-231 breast; more than 92.4 µM in the assay on KM12 colon; 81.1 µM with HCT-15 colon; more than 100 µM with COLO 205 colon; 86.7 µM in the assay on HCC-2998 colon.
For `O=C1Nc2ccccc2/C1=C/c1cn(CC(O)Cn2cc(/C=C3\C(=O)Nc4ccccc43)c3ccccc32)c2ccccc12` (configuration not stated), the GI50 with MDA-MB-231 breast is 1.27 µM; in the assay with HCT-15 colon, 1.77 µM; with CAKI-1 renal, 1.62 µM; in the assay with HCC-2998 colon it was 2.28 µM; in the assay with A498 renal it was 2.18 µM; in the assay on M14 melanoma it was 1.32 µM. For the same compound, in the assay on SNB-75 CNS, the GI50 is 1.33 µM. Further, the TGI is 2.71 µM in the assay with MDA-MB-231 breast; 3.71 µM in the assay on HCT-15 colon; 3.39 µM in the assay on CAKI-1 renal; 5.21 µM with HCC-2998 colon; 4.08 µM in the assay on A498 renal; 2.83 µM with M14 melanoma. This compound showed a TGI with SNB-75 CNS of 2.92 µM.
With `COc1cc2nc(-c3cccc4cccnc34)nc(NC3CCN(Cc4ccccc4)CC3)c2cc1OC`, the GI50 with MDA-MB-231 breast was 1.36 µM; in the assay on HCT-15 colon it was 1.11 µM; with CAKI-1 renal, 1.37 µM; with HCC-2998 colon, 1.72 µM; in the assay on A498 renal, 1.83 µM; in the assay with M14 melanoma, 1.52 µM. In addition, the GI50 with SNB-75 CNS is 1.84 µM. Also, the TGI in the assay with MDA-MB-231 breast was 2.75 µM; in the assay with HCT-15 colon, 2.43 µM; in the assay with CAKI-1 renal, 2.98 µM; in the assay on HCC-2998 colon it was 3.16 µM; in the assay with A498 renal, 3.39 µM; with M14 melanoma, 3.4 µM. This compound also showed a TGI in the assay on SNB-75 CNS of 3.56 µM.
Take `CNCCCNc1c2ccccc2nc2cccc([N+](=O)[O-])c12`: the TGI with MDA-MB-231 breast was 0.00522 µM; with KM12 colon it was 0.0677 µM; in the assay on HCT-15 colon, 0.0207 µM and 0.0116 µM; with CAKI-1 renal it was 0.0271 µM; in the assay with COLO 205 colon, 0.00586 µM; with HCC-2998 colon, 0.0173 µM. The TGI in the assay on A498 renal was determined as 0.00751 µM; in the assay with M14 melanoma, 0.00846 µM; in the assay on SNB-75 CNS, 0.0142 µM.
On to `Cc1ccc(O)c(NC2=C(Cl)C(=O)N(Cc3ccccc3)C2=O)c1`, for which the GI50 with MDA-MB-231 breast was 12.6 µM; with SR leukemia it was 18.3 µM; in the assay on KM12 colon it was 40.7 µM; in the assay on HCT-15 colon it was 25.3 µM; with CAKI-1 renal, 27.5 µM; with COLO 205 colon it was 28.4 µM. In addition, the GI50 in the assay with M14 melanoma is 22.5 µM. The TGI in the assay with MDA-MB-231 breast is 32.3 µM; in the assay with SR leukemia it was 84.9 µM; in the assay on KM12 colon it was more than 100 µM; with HCT-15 colon, 72.6 µM; in the assay with CAKI-1 renal, 82.3 µM; with COLO 205 colon, more than 100 µM. This compound also returned a TGI in the assay with M14 melanoma of 70.6 µM.
For the compound `CCN(CC)c1nc(NC2CCCCC2)c2nc(N(CC)CC)nc(NC3CCCCC3)c2n1`, the TGI in the assay with MDA-MB-231 breast, in the assay on SR leukemia, in the assay on KM12 colon, in the assay with HCT-15 colon, in the assay on HCC-2998 colon and with A498 renal was more than 100 µM throughout. The TGI in the assay with M14 melanoma was more than 100 µM.
Consider `Nc1nc2c(ccc3ccccc32)s1`, for which the GI50 in the assay with MDA-MB-231 breast is more than 100 µM; in the assay on KM12 colon, more than 100 µM; in the assay on HCT-15 colon, more than 100 µM; with CAKI-1 renal, 26.7 µM; with COLO 205 colon it was more than 100 µM; in the assay with HCC-2998 colon it was 50.6 µM. Further, the GI50 with A498 renal was 74.1 µM; with M14 melanoma, more than 100 µM; with SNB-75 CNS it was 36.8 µM. For the same compound, the TGI was more than 100 µM in the assay on MDA-MB-231 breast; more than 100 µM in the assay with KM12 colon; more than 100 µM in the assay on HCT-15 colon; 67.5 µM in the assay on CAKI-1 renal; more than 100 µM in the assay with COLO 205 colon; more than 100 µM in the assay on HCC-2998 colon. Further, the TGI in the assay on A498 renal, in the assay with M14 melanoma and in the assay with SNB-75 CNS was more than 100 µM throughout.
With `Cc1cccc(Nc2cc(Cl)nc(SCC(=O)O)n2)c1C`, the TGI in the assay on MDA-MB-231 breast, in the assay with SR leukemia, with KM12 colon, in the assay on HCT-15 colon, in the assay with CAKI-1 renal and with COLO 205 colon was more than 100 µM in each case. Besides, the TGI in the assay with A498 renal, in the assay on M14 melanoma and in the assay with SNB-75 CNS was more than 100 µM in each case.
Take `CCN(CC)c1ccc(/C=N/NC(=O)CSc2nc3ccccc3c(=O)n2Cc2ccc(S(N)(=O)=O)cc2)c(O)c1`: the GI50 in the assay with MDA-MB-231 breast is 0.643 µM; in the assay with SR leukemia it was 0.212 µM; with KM12 colon, 0.569 µM; in the assay on HCT-15 colon, 3.62 µM; with CAKI-1 renal, 1.02 µM; with COLO 205 colon, 1.51 µM. The GI50 with HCC-2998 colon is 0.882 µM; in the assay on M14 melanoma, 0.452 µM; in the assay on SNB-75 CNS, 2.86 µM. Moreover, the TGI with MDA-MB-231 breast, in the assay on SR leukemia, with KM12 colon, with HCT-15 colon, with CAKI-1 renal and with COLO 205 colon was more than 100 µM in each case. Besides, the TGI in the assay with HCC-2998 colon is more than 100 µM; in the assay with M14 melanoma it was 10.9 µM; in the assay on SNB-75 CNS it was more than 100 µM.
